Data reported in ChEMBL document CHEMBL5226391, “Valhidepsin Lipopeptides from Chromobacterium vaccinii: Structures, Biosynthesis, and Coregulation with FR900359 Production” (J Nat Prod, 2023).
The source made the active and inactive calls. No cut-off for these calls is given here.

What was measured:
Bacillus subtilis = assay: Antibacterial activity against Bacillus subtilis ATCC 23857; type: functional, organism-based
NCI-H2228 = assay: Antiproliferative activity against human NCI-H2228 cells assessed as reduction in cell viability at 50 uM incubated for 72 hrs by cellTiter-glo assay; type: functional, cell-based
NCI-H647 = assay: Antiproliferative activity against human NCI-H647 cells assessed as reduction in cell viability at 50 uM incubated for 72 hrs by cellTiter-glo assay; type: functional, cell-based
[1] = Stability of compound at pH 8.5 assessed as half life measured at 0.5 to 92 hrs by LC-UV/MS analysis; type: physicochemical; conditions: buffer, time 0.5-92 hrs
A549 = assay: Antiproliferative activity against human A549 cells assessed as reduction in cell viability at 50 uM incubated for 72 hrs by cellTiter-glo assay; type: functional, cell-based
[2] = Stability of compound at pH 9 assessed as half life measured at 0.5 to 92 hrs by LC-UV/MS analysis; type: physicochemical; conditions: buffer, time 0.5-92 hrs
Saccharomyces cerevisiae = assay: Antimicrobial activity against Saccharomyces cerevisiae YSD1; type: functional, organism-based
Pseudomonas aeruginosa = assay: Antibacterial activity against Pseudomonas aeruginosa PA14; type: functional, organism-based
[3] = Stability of compound at pH 7.5 measured at 0.5 to 92 hrs by LC-UV/MS analysis; type: physicochemical; conditions: buffer, time 0.5-92 hrs
Escherichia coli = assay: Antibacterial activity against Escherichia coli ATCC 25922; type: functional, organism-based
RERF-LC-MS = assay: Antiproliferative activity against human RERF-LC-MS cells assessed as reduction in cell viability at 50 uM incubated for 72 hrs by cellTiter-glo assay; type: functional, cell-based
[4] = test system: Schizosaccharomyces pombe; assay: Antifungal activity against Schizosaccharomyces pombe H1374; type: functional, organism-based
[5] = Stability of compound at pH 8 assessed as half life measured at 0.5 to 92 hrs by LC-UV/MS analysis; type: physicochemical; conditions: buffer, time 0.5-92 hrs

Compound	Activity (Bacillus subtilis)	Activity (NCI-H2228)	Activity (NCI-H647)	half-life [1] [h]	Activity (A549)	half-life [2] [h]	Activity (Saccharomyces cerevisiae)	Activity (Pseudomonas aeruginosa)	Stability [3]	Activity (Escherichia coli)	Activity (RERF-LC-MS)	Activity [4]	half-life [5] [h]
CCCCCC/C=C\CC(=O)N[C@H]1COC(=O)[C@H](C(C)C)NC(=O)[C@@H](CC(C)C)NC(=O)[C@H](C(C)C)NC(=O)[C@H](Cc2c[nH]cn2)NC(=O)[C@@H](C(C)C)NC1=O	Active	Active	Active	26	Active	7	Active	inactive	Stable	inactive	Active	Active	5
CCCCCC/C=C\CC(=O)N[C@@H](CO)C(=O)N[C@@H](C(=O)N[C@@H](Cc1c[nH]cn1)C(=O)N[C@H](C(=O)N[C@H](CC(C)C)C(=O)N[C@H](C(=O)O)C(C)C)C(C)C)C(C)C	inactive	inactive	inactive	–	inactive	–	inactive	inactive	–	inactive	inactive	inactive	–
